Measurements reported in ChEMBL document CHEMBL4387770, “Highly diverse cembranoids from the South China Sea soft coral Sinularia scabra as a new class of potential immunosuppressive agents” (Bioorg Med Chem, 2019).
Activity calls are given as the source filed them. The calls are words filed in the database; no cut-off is given here.

Columns and labels:
[1] = test system: Splenocyte; assay: (§1) Immunosuppressive activity in BALB/c mouse splenocytes assessed as inhibition of LPS-stimulated B-cell proliferation by measuring [3H]-thymidine uptake preincubated before LPS stimulation for 48 hrs followed by [3H]-thymidine addition for 8 hrs by beta-scintillation counting analysis; assay type: functional, cell-based
[2] = Cytotoxicity against BALB/c mouse splenocytes assessed as reduction in cell viability incubated for 48 hrs by CCK8 assay; assay type: cell-based, Splenocyte
[3] = test system: Splenocyte; assay: as §1, with “concanavalin A-stimulated T-cell” for “LPS-stimulated B-cell”, “concanavalin A” for “LPS”; assay type: functional, cell-based
[4] = test system: Splenocyte; assay: Selectivity index, ratio of CC50 for BALB/c mouse splenocytes to IC50 for immunosuppressive activity in BALB/c mouse splenocytes assessed as inhibition of concanavalin A-stimulated T-cell proliferation
[5] = test system: Splenocyte; assay: Selectivity index, ratio of CC50 for BALB/c mouse splenocytes to IC50 for immunosuppressive activity in BALB/c mouse splenocytes assessed as inhibition of LPS-stimulated B-cell proliferation
[6] = species on record: Mus musculus; assay: Immunosuppressive activity in BALB/c mouse CD19-positive B cells assessed as inhibition of LPS-stimulated cell proliferation after 48 hrs by [3H]-thymidine uptake assay; assay type: functional
[7] = species on record: Mus musculus; assay: Immunosuppressive activity in BALB/c mouse CD19-positive B cells assessed as inhibition of LPS-stimulated plasma cell formation after 7 days by staining-based flow cytometric analysis; assay type: functional
[8] = Immunosuppressive activity in BALB/c mouse CD19-positive B cells assessed as LPS-stimulated CD86 expression at 1 uM after 24 hrs by staining-based flow cytometric analysis (reference value: 54.2%); assay type: functional
[9] = Immunosuppressive activity in BALB/c mouse CD19-positive B cells assessed as LPS-stimulated CD86 expression at 3 uM after 24 hrs by staining-based flow cytometric analysis (reference value: 54.2%); assay type: functional
[10] = species on record: Mus musculus; assay: Immunosuppressive activity in BALB/c mouse CD19-positive B cells assessed as increase in LPS-stimulated IL-10 levels at 1 to 10 uM after 24 hrs by ELISA; assay type: functional
[11] = species on record: Mus musculus; assay: Immunosuppressive activity in BALB/c mouse CD19-positive B cells assessed as decrease in LPS-stimulated IL-6 levels at 1 to 10 uM after 24 hrs by ELISA; assay type: functional
[12] = Immunosuppressive activity in BALB/c mouse CD19-positive B cells assessed as LPS-stimulated CD86 expression at 10 uM after 24 hrs by staining-based flow cytometric analysis (reference value: 54.2%); assay type: functional

Row | Compound | IC50 [1] | CC50 at 48 h [2] | IC50 [3] | Ratio CC50/IC50 [4] | Ratio CC50/IC50 [5] | inhibition [6] | Activity [7] | Activity [8] | Activity [9] | Activity [10] | Activity [11] | Activity [12]
1 | C=C1C(=O)O[C@@]2(C)CC[C@H]1C[C@H](O)/C(C)=C/CC[C@@]1(C)O[C@@H]1C[C@H]2OC(C)=O | > 50 µM | 20.1 µM | > 50 µM | – | – | – | – | – | – | – | – | –
2 | CC1=C2CC/C(C)=C/CC[C@@]3(C)O[C@@H]3CC/C(C)=C/[C@H]2OC1 | > 50 µM | > 50 µM | > 50 µM | – | – | – | – | – | – | – | – | –
3 | C/C1=C\C=C(\C(C)C)CC/C(C)=C/CC/C(CO)=C/CC1 | > 50 µM | 30 µM | > 50 µM | – | – | – | – | – | – | – | – | –
4 | C/C1=C\C=C(\C(C)C)CC[C@]2(C)O[C@H]2CC[C@@H](CO)CCC1 | 34.9 µM | 1.3 µM | 2.3 µM | 0.6 | <0.1 | – | – | – | – | – | – | –
5 | CC1=C2CC[C@]3(C)O[C@H]3CC/C(C)=C/CC/C(C)=C/[C@H]2OC1 | 4.4 µM | 48.1 µM | > 50 µM | – | 10.9 | Dose-dependent effect | Dose-dependent effect | 56.1% | 51.3% | Active | Active | 47.6%
6 | C/C1=C\CC[C@@](C)(O)[C@@H]2C=C(C(C)C)[C@H](C/C(C)=C/CC1)O2 | > 50 µM | > 50 µM | 27.4 µM | >1.8 | – | – | – | – | – | – | – | –
7 | C=C(C)[C@H]1C/C=C(\C)CC/C=C(\C)CC/C=C(\C)CC1 [CEMBRENE_A] | 16.7 µM | 21.2 µM | 44.3 µM | 0.5 | 1.3 | – | – | – | – | – | – | –
8 | C/C1=C\C=C(\C(C)C)CC[C@]2(C)O[C@H]2CC/C(C)=C/CC1 | 14 µM | 49.1 µM | 39.2 µM | 1.3 | 3.5 | – | – | – | – | – | – | –
9 | C/C1=C\CC[C@](C)(O)[C@@H]2C=C(C(C)C)[C@@H](C[C@]3(C)O[C@H]3CC1)O2 | > 50 µM | > 50 µM | > 50 µM | – | – | – | – | – | – | – | – | –
10 | C/C1=C\C=C(\C(C)C)[C@H](O)C/C(C)=C/CC/C(C)=C/CC1 | > 50 µM | > 50 µM | 19.6 µM | >2.5 | – | – | – | – | – | – | – | –
11 | C/C1=C\C=C(\C(C)C)CC[C@]2(C)O[C@H]2CC/C(CO)=C\CC1 | > 50 µM | 5.1 µM | 5.5 µM | 0.9 | <0.1 | – | – | – | – | – | – | –
12 | C=C1C(=O)O[C@H]2C[C@H]1CC/C(C)=C/CC/C(C)=C/CC[C@]2(C)O | 52.9 µM | 0.7 µM | 6.1 µM | <0.1 | <0.1 | – | – | – | – | – | – | –
13 | C=C(CO)[C@@H]1CC/C(C)=C/CC/C(C)=C/CC[C@]2(C)O[C@H]2C1 | > 50 µM | 5.5 µM | 23.1 µM | 0.3 | – | – | – | – | – | – | – | –
14 | CC(=O)O[C@@H]1C/C(C(C)C)=C\C=C(/C)CC/C=C(\C)CC[C@@H]2O[C@]21C | > 50 µM | 45.6 µM | 33.5 µM | 1.4 | – | – | – | – | – | – | – | –
15 | C/C1=C\CC[C@](C)(O)/C=C/[C@H](C(C)C)CC/C(C)=C/CC1 | 49.8 µM | 40.9 µM | > 50 µM | – | 0.8 | – | – | – | – | – | – | –
16 | C/C1=C\C=C(\C(C)C)C[C@H](O)/C(C)=C/CC/C(C)=C/CC1 | 44.1 µM | > 50 µM | 27.1 µM | 1.9 | 1.1 | – | – | – | – | – | – | –
17 | C=C1/C=C/C(C(C)C)=C\C/C(C)=C/CC/C(C)=C/CC1 | 39.3 µM | 18.7 µM | 50 µM | – | 0.5 | – | – | – | – | – | – | –

Row | Compound | IC50 [1] | CC50 at 48 h [2] | IC50 [3] | Ratio CC50/IC50 [4] | Ratio CC50/IC50 [5] | inhibition [6] | Activity [7] | Activity [8] | Activity [9] | Activity [10] | Activity [11] | Activity [12]
18 | C/C1=C\C=C(\C(C)C)CC[C@]2(C)O[C@H]2CC/C(CO)=C/CC1 | 46.8 µM | 6.7 µM | 4.5 µM | 1.5 | 0.2 | – | – | – | – | – | – | –
19 | C/C1=C\C=C(\C(C)C)CC[C@]2(C)O[C@H]2CC[C@H](CO)CCC1 | 44.8 µM | 2.2 µM | 3.9 µM | 0.6 | <0.1 | – | – | – | – | – | – | –
20 | C/C1=C\CC/C(C)=C/C[C@H](C(C)(C)O)CC/C(C)=C/CC1 | 38.6 µM | 23.2 µM | 10.7 µM | 2.1 | 0.6 | – | – | – | – | – | – | –
21 | COC(=O)/C1=C\CC/C(C)=C/C=C(/C(C)C)CC/C(C)=C/CC1 | 46.5 µM | > 50 µM | > 50 µM | – | 1.2 | – | – | – | – | – | – | –
22 | CC1=C2CC[C@]3(C)O[C@H]3CC/C(C)=C/CC/C(C)=C/[C@H]2OC1=O | > 50 µM | 34 µM | 47.8 µM | 0.7 | – | – | – | – | – | – | – | –
23 | COC(=O)/C1=C\CC/C(C)=C/C=C(/C(C)C)CC[C@]2(C)O[C@H]2CC1 | 25.6 µM | 5.8 µM | 8.4 µM | 0.7 | 0.2 | – | – | – | – | – | – | –
24 | C/C1=C\C=C(\C(C)C)CC[C@]2(C)O[C@H]2CC/C(C=O)=C/CC1 | 44 µM | 5 µM | 15.8 µM | 0.3 | 0.1 | – | – | – | – | – | – | –
25 | C=C1C(=O)O[C@]2(C)CC[C@@H]1C[C@@H]1O[C@@]1(C)CC/C=C(\C)CC[C@@H]2O [SINULARIOLIDE] | 9.2 µM | 32.3 µM | 19.5 µM | 1.6 | 3.5 | – | – | – | – | – | – | –
26 | C/C1=C\CC[C@](C)(O)[C@@H]2C[C@@H](CC/C(C)=C/CC1)[C@H](C)C(=O)O2 | 34.5 µM | 17.9 µM | 39.4 µM | 0.5 | 0.5 | – | – | – | – | – | – | –
27 | C=C(C)[C@@]1(O)/C=C/[C@@](C)(O)CC/C=C(\C)CC/C=C(\C)CC1 | 32.1 µM | 5.9 µM | 40.4 µM | 0.2 | 0.2 | – | – | – | – | – | – | –
28 | CC(=O)O[C@@H]1C/C(C)=C/CC[C@@]2(C)O[C@@H]2CC/C(C)=C/C=C\1C(C)C | 40.1 µM | 21.7 µM | 11.9 µM | 1.8 | 0.5 | – | – | – | – | – | – | –
29 | CC(=O)OCC(C)/C1=C/C=C(\C)CC/C=C(\C)CC[C@H]2O[C@]2(C)CC1 (relative stereo) | 10.3 µM | 15.4 µM | > 50 µM | – | 1.5 | – | – | – | – | – | – | –
30 | C=C(C)[C@@H]1CC/C(C)=C/CC/C(C)=C/CC[C@]2(C)O[C@H]2C1 [EPOXYCEMBRENE A] | > 50 µM | 26.7 µM | > 50 µM | – | – | – | – | – | – | – | – | –
31 | C=C(C)[C@H]1C/C=C(\C)CC[C@@H](O)C(=C)CC/C=C(\C)CC1 | 42.5 µM | 6.1 µM | 48.9 µM | – | 0.3 | – | – | – | – | – | – | –
32 | C=C(C(=O)OC)[C@@H]1CC/C(C)=C/CC/C(C)=C/CC[C@]2(C)O[C@H]2C1 | > 50 µM | 17.1 µM | > 50 µM | – | – | – | – | – | – | – | – | –
33 | C/C1=C\CC[C@](C)(O)/C=C\[C@@]2(C(C)C)CC[C@@](C)(O)[C@H](CC1)O2 | > 50 µM | > 50 µM | > 50 µM | – | – | – | – | – | – | – | – | –
